Source: patent publication US20260217687A1 (NeoPhore Limited, priority 2023, published 2026)

Biological target: T1, recombinant N-terminal MLH1 (residues 15-340) (Homo sapiens, UniProt P40692)
T1 construct: recombinant N-terminal MLH1 (residues 15-340)
T1 sequence (P40692 15-340): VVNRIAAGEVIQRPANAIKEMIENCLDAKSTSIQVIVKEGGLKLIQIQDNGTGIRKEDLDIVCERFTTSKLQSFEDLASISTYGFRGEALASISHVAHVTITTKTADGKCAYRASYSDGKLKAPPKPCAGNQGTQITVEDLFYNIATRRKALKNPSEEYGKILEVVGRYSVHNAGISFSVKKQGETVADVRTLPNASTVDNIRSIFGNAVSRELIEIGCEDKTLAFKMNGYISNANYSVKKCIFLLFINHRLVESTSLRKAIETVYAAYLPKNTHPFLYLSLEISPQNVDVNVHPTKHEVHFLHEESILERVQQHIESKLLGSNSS
Assay: Fluorescence Polarisation Assay for MLH1
Format: binding
Details: 100 nM N-terminal MLH1, 5 nM probe compound
How it was run: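 Fluorescence polarisation displacement: 100 nM MLH1 (15-340) preincubated 30 min at room temperature with compound, then 5 nM rhodamine-labelled probe added and read immediately. Buffer 25 mM HEPES pH 7.5, 250 mM NaCl, 10 mM MgCl2, 0.01% Triton X-100, 5 mM DTT; normalised to no-inhibitor and no-enzyme controls.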

| Compound | IC50 [nM] |
| --- | --- |
| CN(C)CCOc1ccc2c(c1)CN(C(=O)c1c(O)cc(C(F)F)cc1OCc1ccccc1)C2 [Example 4.31, (2-(Benzyloxy)-4-(difluoromethyl)-6-hydroxyphenyl)(5-(2-(dimethylamino)ethoxy)isoindolin-2-yl)methanone] | 100 to 1000 |
| CN1CCN(CCOc2ccc3c(c2)CN(C(=O)c2c(O)cc(C(F)F)cc2OCc2ccccc2)C3)CC1 [Example 4.71, (2-(Benzyloxy)-4-(difluoromethyl)-6-hydroxyphenyl) (5-(2-(4-methylpiperazin-1-yl)ethoxy)isoindolin-2-yl) methanone] | 100 to 1000 |
| CC(=O)N1CCC(Nc2cccc3c2CN(C(=O)c2c(O)cc(C#N)cc2OCc2ccccc2)C3)CC1 [Example 10.16, 4-(4-((1-Acetylpiperidin-4-yl)amino)isoindoline-2-carbonyl)-3-(benzyloxy)-5-hydroxybenzonitrile] | 100 to 1000 |
| O=C(c1c(O)cc(C(F)F)cc1OCc1ccccc1)N1Cc2cccc(NC3COC3)c2C1 [Example 4.4, (2-(Benzyloxy)-4-(difluoromethyl)-6-hydroxyphenyl)(4-(oxetan-3-ylamino)isoindolin-2-yl)methanone] | 100 to 1000 |
| CN(C)Cc1ccc2c(c1)CN(C(=O)c1c(O)cc(C(F)F)cc1OCc1ccccc1)CC2 [Example 4.42, (2-(Benzyloxy)-4-(difluoromethyl)-6-hydroxyphenyl)(7-((dimethylamino)methyl)-3,4-dihydroisoquinolin-2(1H)-yl)methanone] | 100 to 1000 |
| COc1cc2c(c(N[C@H]3CCOC3)c1)CN(C(=O)c1c(O)cc(C(F)F)cc1OCc1ccccc1)C2 [Example 4.18, (S)-(2-(Benzyloxy)-4-(difluoromethyl)-6-hydroxyphenyl)(6-methoxy-4-((tetrahydrofuran-3-yl)amino)isoindolin-2-yl)methanone] | 100 to 1000 |
| CN1CCC(Oc2ccc3c(c2)CN(C(=O)c2c(O)cc(C(F)F)cc2OCc2ccccc2)CC3)CC1 [Example 4.44, (2-(Benzyloxy)-4-(difluoromethyl)-6-hydroxyphenyl)(7-((1-methylpiperidin-4-yl)oxy)-3,4-dihydroisoquinolin-2(1H)-yl)methanone] | 100 to 1000 |
| CN1CC[C@H](Oc2ccc3c(c2)CN(C(=O)c2c(O)cc(C(F)F)cc2OCc2ccccc2)CC3)C1 [Example 4.68, (S)-(2-(Benzyloxy)-4-(difluoromethyl)-6-hydroxyphenyl)(7-((1-methylpyrrolidin-3-yl)oxy)-3,4-dihydroisoquinolin-2(1H)-yl)methanone] | 100 to 1000 |
| O=C(c1c(O)cc(Cl)cc1OCc1ccccc1)N1Cc2cccc(N[C@H]3CCOC3)c2C1 [Example 8, (S)-(2-(Benzyloxy)-4-chloro-6-hydroxyphenyl)(4-((tetrahydrofuran-3-yl)amino)isoindolin-2-yl)methanone] | 100 to 1000 |
| CC(=O)N1CC[C@H](Nc2cccc3c2CN(C(=O)c2c(O)cc(C#N)cc2OCc2ccccc2)C3)C1 [Example 10.6, (S)-4-(4-((1-Acetylpyrrolidin-3-yl)amino)isoindoline-2-carbonyl)-3-(benzyloxy)-5-hydroxybenzonitrile] | 100 to 1000 |
| CN(C)CCOc1nc2c(c(NC3CCOC3)n1)CN(C(=O)c1c(O)cc(C#N)cc1OCc1ccccc1)CC2 (stereo not shown) [Example 27.16, 3-(Benzyloxy)-4-(2-(2-(dimethylamino)ethoxy)-4-((tetrahydrofuran-3-yl)amino)-5,6,7,8-tetrahydropyrido[4,3-d]pyrimidine-6-carbonyl)-5-hydroxybenzonitrile] | 100 to 1000 |
| CC(=O)N1CC(Nc2cccc3c2CN(C(=O)c2c(O)cc(F)cc2OCc2ccccc2)C3)C1 [Example 10.23, 1-(3-((2-(2-(Benzyloxy)-4-fluoro-6-hydroxybenzoyl)isoindolin-4-yl)amino)azetidin-1-yl)ethan-1-one] | 100 to 1000 |
| CC(=O)N1CCC(Oc2ccc3c(c2)CN(C(=O)c2c(O)cc(C(F)F)cc2OCc2ccccc2)C3)CC1 [Example 29, 1-(4-((2-(2-(Benzyloxy)-4-(difluoromethyl)-6-hydroxybenzoyl)isoindolin-5-yl)oxy)piperidin-1-yl) ethan-1-one] | < 100 |
| Cn1cnc(-c2cc3c(c(N[C@H]4CCOC4)c2)CN(C(=O)c2c(O)cc(C(F)F)cc2OCc2ccccc2)C3)c1 [Example 4.25, (S)-(2-(Benzyloxy)-4-(difluoromethyl)-6-hydroxyphenyl)(6-(1-methyl-1H-imidazol-4-yl)-4-((tetrahydrofuran-3-yl)amino)isoindolin-2-yl)methanone] | 100 to 1000 |
| COc1cc(O)c(C(=O)N2Cc3cccc(N[C@@H]4CCOC4)c3C2)c(OCc2ccccc2)c1 [Example 2, (R)-(2-(Benzyloxy)-6-hydroxy-4-methoxyphenyl)(4-((tetrahydrofuran-3-yl)amino)isoindolin-2-yl)methanone] | 100 to 1000 |
| CN1CC[C@@H](Nc2cccc3c2CN(C(=O)c2c(O)cc(C#N)cc2OCc2ccccc2)C3)C1=O [Example 10.28, (R)-3-(benzyloxy)-5-hydroxy-4-(4-((1-methyl-2-oxopyrrolidin-3-yl)amino)isoindoline-2-carbonyl)benzonitrile] | 100 to 1000 |

| Compound | IC50 [nM] |
| --- | --- |
| COCCNc1cccc2c1CN(C(=O)c1c(O)cc(C(F)F)cc1OCc1ccccc1)C2 [Example 4.28, (2-(Benzyloxy)-4-(difluoromethyl)-6-hydroxyphenyl) (4-((2-methoxyethyl)amino)isoindolin-2-yl)methanone] | 100 to 1000 |
| O=C(c1c(O)cc(C(F)F)cc1OCc1ccccc1)N1Cc2ccc(OCCN3CCOCC3)cc2C1 [Example 4.70, (2-(Benzyloxy)-4-(difluoromethyl)-6-hydroxyphenyl) (5-(2-morpholinoethoxy)isoindolin-2-yl) methanone] | 100 to 1000 |
| O=C(c1c(O)cc(C(F)F)cc1OCc1ccccc1)N1CCc2cccc(OC3CCOC3)c2C1 (stereo not shown) [Example 4.80] | 1000 to 10000 |
| CC(=O)N1CC(Nc2cccc3c2CN(C(=O)c2c(O)cc(C#N)cc2OCc2ccccc2)C3)C1 [Example 16, 4-(4-((1-Acetylazetidin-3-yl)amino)isoindoline-2-carbonyl)-3-(benzyloxy)-5-hydroxybenzonitrile] | 100 to 1000 |
| CN(C)CCOc1ccc2c(c1)CN(C(=O)c1c(O)cc(C(F)F)cc1OCc1ccccc1)CC2 [Example 4.40, (2-(Benzyloxy)-4-(difluoromethyl)-6-hydroxyphenyl)(7-(2-(dimethylamino)ethoxy)-3,4-dihydroisoquinolin-2(1H)-yl)methanone] | 100 to 1000 |
| O=C(c1c(O)cc(C(F)F)cc1OCc1ccccc1)N1Cc2cccc(OC3CCOC3)c2C1 (stereo not shown) [Example 4.79, (2-(Benzyloxy)-4-(difluoromethyl)-6-hydroxyphenyl)(4-((tetrahydrofuran-3-yl)oxy)isoindolin-2-yl)methanone] | 1000 to 10000 |
| CN1CC[C@H](Oc2ccc3c(c2)CN(C(=O)c2c(O)cc(C#N)cc2OCc2ccccc2)C3)C1 [Example 10.31, (S)-3-(Benzyloxy)-5-hydroxy-4-(5-((1-methylpyrrolidin-3-yl)oxy)isoindoline-2-carbonyl)benzonitrile] | 100 to 1000 |
| O=C1OCCC1Nc1cccc2c1CN(C(=O)c1c(O)cc(C(F)F)cc1OCc1ccccc1)C2 (stereo not shown) [Example 4.16, 3-((2-(2-(Benzyloxy)-4-(difluoromethyl)-6-hydroxybenzoyl)isoindolin-4-yl)amino)dihydrofuran-2(3H)-one] | 100 to 1000 |
| O=C(c1c(O)cc(F)cc1OCc1ccccc1)N1Cc2cccc(N[C@H]3CCOC3)c2C1 [Example 5, (S)-(2-(Benzyloxy)-4-fluoro-6-hydroxyphenyl)(4-((tetrahydrofuran-3-yl)amino)isoindolin-2-yl)methanone] | 100 to 1000 |
| CN(C)CCOc1cc2c(c(NC3CCCC3)c1)CN(C(=O)c1c(O)cc(C(F)F)cc1OCc1ccccc1)CC2 [Example 4.72, (2-(Benzyloxy)-4-(difluoromethyl)-6-hydroxyphenyl)(8-(cyclopentylamino)-6-(2-(dimethylamino)ethoxy)-3,4-dihydroisoquinolin-2(1H)-yl)methanone] | < 100 |
| CN(C)CCOc1cc2c(c(N[C@H]3CCOC3)c1)CN(C(=O)c1c(O)cc(Cl)cc1OCc1ccccc1)C2 [Example 10, (S)-(2-(Benzyloxy)-4-chloro-6-hydroxyphenyl)(6-(2-(dimethylamino)ethoxy)-4-((tetrahydrofuran-3-yl)amino)isoindolin-2-yl)methanone] | < 100 |
| CN1CCC(Oc2cc3c(c(N[C@@H]4CCOC4)c2)CN(C(=O)c2c(O)cc(C(F)F)cc2OCc2ccccc2)C3)CC1 [Example 4.63, (R)-(2-(Benzyloxy)-4-(difluoromethyl)-6-hydroxyphenyl)(6-((1-methylpiperidin-4-yl)oxy)-4-((tetrahydrofuran-3-yl)amino)isoindolin-2-yl)methanone] | 100 to 1000 |
| O=C(c1c(O)cc(C(F)F)cc1OCc1ccccc1)N1CCc2ccncc21 [Example 27.23, (2-(Benzyloxy)-4-(difluoromethyl)-6-hydroxyphenyl)(2,3-dihydro-1H-pyrrolo[2,3-c]pyridin-1-yl)methanone] | 1000 to 10000 |
| COCCOc1ccc2c(c1)CN(C(=O)c1c(O)cc(C(F)F)cc1OCc1ccccc1)C2 [Example 4.77, (2-(Benzyloxy)-4-(difluoromethyl)-6-hydroxyphenyl)(5-(2-methoxyethoxy)isoindolin-2-yl)methanone] | 100 to 1000 |
| O=C(c1c(O)cc(C(F)F)cc1OCc1ccccn1)N1Cc2cccc(NC3COC3)c2C1 [Example 4.5, (4-(Difluoro methyl)-2-hydroxy-6-(pyridin-2-ylmethoxy)phenyl) (4-(oxetan-3-ylamino)isoindolin-2-yl) methanone] | 100 to 1000 |
